Data on 23 compounds can be found in paper PMC10627047, “Flavone-based dual PARP-Tubulin inhibitor manifesting efficacy against endometrial cancer” (Journal of Enzyme Inhibition and Medicinal Chemistry, 2023).

Read-outs that look alike come from different tables or passages of the source. Bounds are passed on as bounds.

Usually melting point stands for the temperature of the solid-liquid transition. Broadly, the IC50 is the concentration that inhibits the measured activity by half.

Series [1] concerns Ishikawa cell lines. As to the kind of experiment: In-vitro cytotoxicity (MTT cell viability assay). The class given is cell-based. Conditions: Homo sapiens, read-out: IC50 values (Ishikawa cell lines, µM ± SD), in-vitro growth inhibition. How it is done: The cell growth inhibitory effects of the synthesised compounds were evaluated against Ishikawa cell lines. […] Forth, the synthesised compounds bearing a substituted phenyl ring at position 2 of the biaryl arm bearing benzopyrans were profiled for the cytotoxic effects. Noteworthy to mention that diverse substitutions with varied electronic effects viz fluorine (−I, +R), methoxy (−I, +R), and nitro (−I and − R) were made on the phenyl ring (position 2 of benzopyran). Also, the trimethoxy phenyl ring well established as an imperative structural feature of tubulin inhibitors was tethered to the benzopyran scaffold (20, 21).
Ishikawa cells (a human endometrial carcinoma of the epithelial cell) were kindly gifted by Dr. Geetanjali Sachdeva and Dr. Uddhav Chaudhari of National Institute for Research In Reproductive and Child Health (NIRRCH), Mumbai. […] The cells were maintained in RPMI medium supplemented with 10% Foetal bovine serum (FBS) and 100 IU/mL penicillin.
Mitochondrial activity was evaluated by MTT assay.[59] This assay is based on enzymatic reduction of the yellow-colored MTT dye to purple-colored formazan crystals by a variety of mitochondrial and cytosolic enzymes that are operational in viable cells. Briefly, […] (3000 cells/well) were seeded in 100 µL of medium into a 96-well plate and left to settle in a CO2 incubator. […] Then 150 μL of DMSO was added to each well to dissolve the formazan crystals. The optical density (OD) of each well was recorded using a microplate reader at a wavelength of 570 nm. The percentages of cell viability and growth inhibition were calculated according to the following equations. Cell viability (%) = [(OD of treated cells-OD of blank)/(OD of control-OD of blank) ×100].
A general note: Tetrazolium dyes change colour on reduction, which living cells bring about.

The mark [2] stands for this setting: Ishikawa cell lines, MTT, 48 h incubation, mean ± SD, at least three experiments.

With `COc1cc(-c2cc(=O)c3ccc(-c4ccc5ncccc5c4)cc3o2)cc(OC)c1OC` [Compound 20, 7-(Quinolin-6-yl)-2–(3,4,5-trimethoxyphenyl)-4H-chromen-4-one], the melting point is 214 to 217 °C. The 50% inhibitory concentration (IC50) in series [1] (setting [2]) was more than 10 µM.
The compound `O=c1cc(-c2ccccc2)oc2cc(-c3ccc4c(c3)OCCO4)ccc12` [Compound 4, 7–(2,3-dihydrobenzo[b][1,4]dioxin-6-yl)-2-phenyl-4H-chromen-4-one] displayed a melting point of 181 to 184 °C. Also, the IC50 in series [1] (setting [2]) was more than 10 µM.
In turn, `O=c1cc(-c2ccccc2)oc2cc(-c3ccc4[nH]ccc4c3)ccc12` [Compound 6, 7-(1H-indol-5-yl)-2-phenyl-4H-chromen-4-one] gave a melting point of 246 to 249 °C. In addition, the concentration for half-maximal inhibition (IC50) in series [1] (setting [2]) was more than 10 µM.
For the compound `O=c1cc(-c2ccccc2)oc2ccccc12` [X, reference compound], the IC50 in series [1] (setting [2]) was more than 10 µM.
Take `COc1ccc(/C=C\c2cc(OC)c(OC)c(OC)c2)cc1O` [Combretastatin, Combretastatin A-4, reference compound]: the 50% inhibitory concentration (IC50) in series [1] (setting [2]) turned out to be 4.21 ± 0.78 µM.
As for `COc1cc(-c2cc(=O)c3ccc(-c4ccc5[nH]ccc5c4)cc3o2)cc(OC)c1OC` [Compound 21, 7-(1H-indol-5-yl)-2–(3,4,5-trimethoxyphenyl)-4H-chromen-4-one], the melting point was in the range of 246 to 250 °C. Further, the half-inhibitory concentration (IC50) in series [1] (setting [2]) was more than 10 µM.
Taken in the same sequence, the figures for `COc1ccc(-c2cc(=O)c3ccc(-c4cccs4)cc3o2)cc1` [Compound 9, 2–(4-methoxyphenyl)-7-(thiophen-2-yl)-4H-chromen-4-one] were 180 to 184 °C and 3 ± 0.785 µM.
Take `O=C(c1cc(Cc2n[nH]c(=O)c3ccccc23)ccc1F)N1CCN(C(=O)C2CC2)CC1` [Olaparib, reference compound]: the half-maximal inhibitory concentration (IC50) in series [1] (Ishikawa, 48 h) was determined as 3.91 ± 1.06 µM.
Take `O=c1cc(-c2ccccc2)oc2cc(-c3ccoc3)ccc12` [Compound 2, 7-(Furan-3-yl)-2-phenyl-4H-chromen-4-one]: the melting point was 163 to 167 °C. In addition, the IC50 in series [1] (setting [2]) is 1.5 ± 0.67 µM.
For `O=c1cc(-c2ccc(F)cc2)oc2cc(-c3ccc4ncccc4c3)ccc12` [Compound 17, 2–(4-fluorophenyl)-7-(quinolin-6-yl)-4H-chromen-4-one], the melting point was 236 to 240 °C. In addition, in series [1] (setting [2]), the IC50 is more than 10 µM.
For `O=c1cc(-c2ccc([N+](=O)[O-])cc2)oc2cc(-c3ccc4[nH]ccc4c3)ccc12` [Compound 19, 7-(1H-indol-5-yl)-2–(4-nitrophenyl)-4H-chromen-4-one], the melting point was in the range of 255 to 258 °C. Moreover, the IC50 in series [1] (setting [2]) was more than 10 µM.
Taken in the same sequence, the figures for `O=c1cc(-c2ccc(F)cc2)oc2cc(-c3ccccc3)ccc12` [Compound 13, 2–(4-fluorophenyl)-7-phenyl-4H-chromen-4-one] were 193 to 196 °C and 2.03 ± 1.1 µM.
`O=c1cc(-c2ccc(F)cc2)oc2cc(-c3cccs3)ccc12` [Compound 15, 2–(4-fluorophenyl)-7-(thiophen-2-yl)-4H-chromen-4-one] came in with a melting point of 202 to 205 °C. For the same compound, the IC50 in series [1] (setting [2]) is 1.5 ± 1.08 µM.
Taken in the same sequence, the figures for `COc1ccc(-c2cc(=O)c3ccc(-c4ccc5ncccc5c4)cc3o2)cc1` [Compound 11, 2–(4-methoxyphenyl)-7-(quinolin-6-yl)-4H-chromen-4-one] were 221 to 224 °C and more than 10 µM.
With `O=c1cc(-c2ccccc2)oc2cc(-c3ccccc3)ccc12` [Compound 1, 2,7-diphenyl-4H-chromen-4-one], the melting point lay within 153 to 157 °C. Moreover, the 50% inhibitory concentration (IC50) in series [1] (setting [2]) is 3 ± 1.09 µM.
On to `O=c1cc(-c2ccccc2)oc2cc(-c3ccc4ncccc4c3)ccc12` [Compound 5, 2-phenyl-7-(quinolin-6-yl)-4H-chromen-4-one], for which the melting point lay within 136 to 140 °C. In addition, the half-inhibitory concentration (IC50) in series [1] (setting [2]) is more than 10 µM.
Consider `COc1ccc(-c2cc(=O)c3ccc(-c4ccccc4)cc3o2)cc1` [Compound 7, 2–(4-methoxyphenyl)-7-phenyl-4H-chromen-4-one], for which the melting point was 172 to 175 °C. Besides, in series [1] (setting [2]), the IC50 was determined as 6.3 ± 1.08 µM.
As for `COc1ccc(-c2cc(=O)c3ccc(-c4ccc5c(c4)OCCO5)cc3o2)cc1` [Compound 10, 7–(2,3-dihydrobenzo[b][1,4]dioxin-6-yl)-2–(4-methoxyphenyl)-4H-chromen-4-one], the melting point fell in the range of 183 to 186 °C. For the same compound, the IC50 in series [1] (setting [2]) is more than 10 µM.
`O=c1cc(-c2ccc(F)cc2)oc2cc(-c3ccc4c(c3)OCCO4)ccc12` [Compound 16, 7–(2,3-dihydrobenzo[b][1,4]dioxin-6-yl)-2–(4-fluorophenyl)-4H-chromen-4-one] had a melting point of 193 to 196 °C. Further, in series [1] (setting [2]), the IC50 was more than 10 µM.
For `COc1ccc(-c2cc(=O)c3ccc(-c4ccoc4)cc3o2)cc1` [Compound 8, 7-(Furan-3-yl)-2–(4-methoxyphenyl)-4H-chromen-4-one], the melting point was in the range of 173 to 176 °C. Besides, in series [1] (setting [2]), the IC50 was 3.2 ± 1.04 µM.
Take `COc1ccc(-c2cc(=O)c3ccc(-c4ccc5[nH]ccc5c4)cc3o2)cc1` [Compound 12, 7-(1H-indol-5-yl)-2–(4-methoxyphenyl)-4H-chromen-4-one]: the melting point lay in the range of 129 to 132 °C. Further, the IC50 in series [1] (setting [2]) is more than 10 µM.
Turning to `O=c1cc(-c2ccccc2)oc2cc(-c3cccs3)ccc12` [Compound 3, 2-phenyl-7-(thiophen-2-yl)-4H-chromen-4-one], the melting point is 186 to 189 °C. In series [1] (setting [2]), the IC50 was 2.1 ± 0.89 µM.
In the same order, the values of `O=c1cc(-c2ccc(F)cc2)oc2cc(-c3ccc4[nH]ccc4c3)ccc12` [Compound 18, 2–(4-fluorophenyl)-7-(1H-indol-5-yl)-4H-chromen-4-one] are 229 to 232 °C and more than 10 µM.
